pIC50: −log10 of the molar value.
System: 361931-004-R-J1-PDC multicell spheroid viability
Assay: Anticancer human tumor 361931-004-R-J1-PDC patient-derived colon adenocarcinoma cell line growth inhibition [PI3K]
Settings: for pIC50: curve of first compound; for viability, T/C: stronger effect = lower value
Excerpt: Combinatorial screen of targeted agents with the PI3K inhibitors inavolisib, alpelisib, duvelisib, and copanlisib in multi-cell type tumor spheroids
A high-throughput screen of multi-cell type tumor spheroids was designed to identify active combinations of targeted small molecules and PI3K pathway inhibitors. Complex spheroids include a stromal component modeled by human endothelial cells (HUVEC) and fibroblasts modeled by human mesenchymal stem cells (MSCs). The concentration ranges selected for each drug and investigational agent were based upon clinically achievable concentrations if the clinical Cmax of the agent was known.
Compounds. The drugs and investigational agents: inavolisib (NSC800729), alpelisib (NSC765974), duvelisib (NSC772469), copanlisib (NSC816437), ipatasertib (NSC767898), afuresertib (NSC778305), talazoparib (NSC767125), sapanisertib (NSC764658), selumetinib (NSC741078), tovorafenib (DAY101, NSC766906), vemurafenib (NSC761431), ravoxertinib (NSC781343), sotorasib (NSC818433), MRTX1133 (NSC 836407), abemaciclib (NSC 768073), palbociclib (NSC758247), venetoclax (NSC 766270), SY5609 (NSC837396), enzalutamide (NSC755605), and darolutamide (NSC825331), were obtained from the National Cancer Institute (NCI) Developmental Therapeutics Program Chemical Repository. The FDA-approved anticancer drug set is available from the NCI Developmental Therapeutics Program. […] The stock solutions were prepared in dimethyl sulfoxide (DMSO, Sigma-Aldrich, St. Louis, MO, cat. D2650) at 800-fold the tested concentration and stored at -70 degrees C prior to their use. All drugs and investigational agents were tested over a range starting from a high concentration at or near the clinical Cmax and decreasing in half-log increments. If the clinical Cmax for an agent had not been determined, the highest concentration tested was 10 microM.
Cell Culture. All cells were maintained in an incubator at 37 degrees C and 5% CO2 with 95% humidity. The PDC lines were cultured according to standard operating procedures established by the NCI PDMR (https://pdmr.cancer.gov/sops/default.htm). All PDCs were thawed and cultured in Matrigel-coated flasks prepared with a working solution of 1X Ham's F-12 nutrient mix, without supplementation (Invitrogen, Waltham, MA, cat. 11765054), 100 U/mL penicillin-streptomycin (Invitrogen, cat. 15140122), and 2.5% Matrigel (Corning Inc., Corning, NY, cat. 354248) for the first three passages. The 354836-022-R-J1-PDC, 475296-252-R-J1-PDC, and 997726-040-R-J2-PDC lines were cultured in 6A media, which includes advanced DMEM/F-12 (Thermo Fisher Scientific, cat. 12634028), 10 mM HEPES (Thermo Fisher Scientific, cat. 15630080), 1X GlutaMAX supplement (Thermo Fisher Scientific, cat. 35050061), 0.1 mg/mL primocin (InvivoGen, San Diego, CA, cat. ant-pm-2), 10% defined fetal bovine serum, heat inactivated (HyClone Laboratories Inc., Logan, UT, cat. SH30070.03HI), 50% L-WRN conditioned media (ATCC, cat. CRL-3276), 1.25 mM N-Acetyl-L-cysteine (Sigma-Aldrich, cat. A9165), 10 mM nicotinamide (Sigma-Aldrich, cat. N0636), 1X B-27 supplement (Thermo Fisher Scientific, cat. 17504044), 1X N-2 supplement (Thermo Fisher Scientific, cat. 17502048), and 10 microM Y-27632 dihydrochloride (Tocris Bioscience, Bristol, United Kingdom, cat. 1254). The 624824-186-R-J2-PDC line was cultured in 6C/Colon 1B media, which includes all 6A media components plus 50 ng/mL human EGF recombinant protein (Thermo Fisher Scientific, cat. PHG0311). […]
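Further: spheroids exposed to agents for seven days before readout.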

pIC50 (second compound 0.0316 µM): < 5.00
pIC50 (second compound 0.1 µM): < 5.00
pIC50 (second compound 0.316 µM): < 5.00
pIC50 (second compound 1 µM): < 5.00
pIC50 (second compound 3.16 µM): < 5.00
pIC50 (second compound 10 µM): < 5.00
SMILES: C[C@@H](NC(=O)c1ncnc(N)c1Cl)c1ncc(C(=O)Nc2cc(C(F)(F)F)c(Cl)cn2)s1 + CC(Nc1ncnc2nc[nH]c12)c1cc2cccc(Cl)c2c(=O)n1-c1ccccc1
viability, T/C (second compound 0.0316 µM, first compound 0.0316 µM): 105%
viability, T/C (second compound 0.0316 µM, first compound 0.1 µM): 102%
viability, T/C (second compound 0.0316 µM, first compound 0.316 µM): 99.2%
viability, T/C (second compound 0.0316 µM, first compound 1 µM): 94.1%
viability, T/C (second compound 0.0316 µM, first compound 3.16 µM): 104%
viability, T/C (second compound 0.0316 µM, first compound 10 µM): 98%
viability, T/C (second compound 0.1 µM, first compound 0.0316 µM): 101%
viability, T/C (second compound 0.1 µM, first compound 0.1 µM): 101%
viability, T/C (second compound 0.1 µM, first compound 0.316 µM): 96%
viability, T/C (second compound 0.1 µM, first compound 1 µM): 95.3%
viability, T/C (second compound 0.1 µM, first compound 3.16 µM): 104%
viability, T/C (second compound 0.1 µM, first compound 10 µM): 94.6%
viability, T/C (second compound 0.316 µM, first compound 0.0316 µM): 105%
viability, T/C (second compound 0.316 µM, first compound 0.1 µM): 103%
viability, T/C (second compound 0.316 µM, first compound 0.316 µM): 107%
viability, T/C (second compound 0.316 µM, first compound 1 µM): 104%
viability, T/C (second compound 0.316 µM, first compound 3.16 µM): 106%
viability, T/C (second compound 0.316 µM, first compound 10 µM): 93.7%
viability, T/C (second compound 1 µM, first compound 0.0316 µM): 98.8%
viability, T/C (second compound 1 µM, first compound 0.1 µM): 99.9%
viability, T/C (second compound 1 µM, first compound 0.316 µM): 107%
viability, T/C (second compound 1 µM, first compound 1 µM): 103%
viability, T/C (second compound 1 µM, first compound 3.16 µM): 106%
viability, T/C (second compound 1 µM, first compound 10 µM): 91.7%
viability, T/C (second compound 3.16 µM, first compound 0.0316 µM): 88.6%
viability, T/C (second compound 3.16 µM, first compound 0.1 µM): 110%
viability, T/C (second compound 3.16 µM, first compound 0.316 µM): 107%
viability, T/C (second compound 3.16 µM, first compound 1 µM): 99.5%
viability, T/C (second compound 3.16 µM, first compound 3.16 µM): 107%
viability, T/C (second compound 3.16 µM, first compound 10 µM): 101%
viability, T/C (second compound 10 µM, first compound 0.0316 µM): 101%
viability, T/C (second compound 10 µM, first compound 0.1 µM): 96.7%
viability, T/C (second compound 10 µM, first compound 0.316 µM): 107%
viability, T/C (second compound 10 µM, first compound 1 µM): 107%
viability, T/C (second compound 10 µM, first compound 3.16 µM): 104%
viability, T/C (second compound 10 µM, first compound 10 µM): 87.7%

From PubChem BioAssay AID1963979 (Molecular Pharmacology Branch, DTP, NCI, 2024)
